Reference: patent US11197846B2, “Methods and compositions for treating cannabis use disorder and mitigating cannabinoid withdrawal” (Pleopharma, L.L.C., priority 2020, dated 2021)
“Also recorded” adds a separate entry of the source.

Key:
[1] = Plasma pharmacokinetics of nabilone and gabapentin after oral PP-01 once daily for four doses (LC-MS/MS), Example 1 clinical study; details: for AUC(0-t) / AUC(0-inf) / Cmax / Tmax / half-life: human, plasma, oral; for AUC(0-inf): AUC0-∞; for Pharmacokinetics compared with historical controls: nabilone and gabapentin given together as PP-01
Text: A total of 14 eligible healthy volunteers with moderate to severe CUD and no contraindications to nabilone or gabapentin were randomized to receive PP-01 (nabilone and gabapentin; Test) or Placebo, in a 1:1 ratio, from a randomization table at the start of Period 1 (Day −1). If participants received PP-01 in Period 1, they received Placebo in Period 2; similarly, if participants received Placebo in Period 1, they received PP-01 in Period 2. Participants received oral doses of PP-01 or Placebo approximately 2 hours before a standardized meal on the morning on the second day of each inpatient admission (Day 1, Periods 1 and 2) and continued to receive once-daily dosing in the morning for a total of four doses per period.
On Day 1, the 0-hour PK blood draw was obtained within 30 minutes prior to the first dose of study drug which was administered by the Investigator (or a staff member as delegated by the Investigator) at approximately 120 minutes prior to the morning standardized breakfast. Venous blood samples of approximately 10 mL each were obtained at the following times following the Day 1 dose to assess nabilone and gabapentin concentrations: 30 and 60 minutes, and 2, 3, and 4 hours (within ±5 minutes of each time point), and 6, 8, 12, and 24 hours (within ±10 minutes of each time point) after study drug administration. The CWS was completed by participants prior to dosing (Baseline) and at 4- and 10-hours post-dose and the sleep questionnaire was completed in the morning prior to dosing. Blood samples to assess serum cortisol were obtained in the evening. Routine safety assessments were performed as scheduled.
On Day 4, the 0-hour PK blood draw was obtained within 30 minutes prior to the dosing of study drug, which was administered by the Investigator (or a staff member as delegated by the Investigator) at approximately 120 minutes prior to the morning standardized breakfast. Venous blood samples of approximately 10 mL each were obtained at the following times following the Day 4 dose to assess nabilone and gabapentin concentrations: 30 and 60 minutes, and 2, 3, and 4 hours (within ±5 minutes of each time point), and 6, 8, 12, and 24 hours (within ±10 minutes of each time point) after study drug administration. The CWS was completed by participants prior to dosing and at 4- and 10-hours post-dose and the sleep questionnaire was completed in the morning prior to dosing; the PGI-S and CGI were completed approximately 4 hours after dosing. Blood samples to assess serum cortisol were obtained in the evening. Routine safety assessments were performed as scheduled.
The following PK assessments were assessed in Periods 1 and 2 on Day 1, Day 2 (trough), Day 4, Day 5 (trough), and Day 8 for nabilone and gabapentin. Baseline concentrations were defined as the 0-minute time point (within 30 minutes of dosing) on Day 1 (Periods 1 and 2). • Area under the plasma concentration-time curve from 0 to the last measurable concentration (AUC0-t) • Area under the plasma concentration-time curve extrapolated to infinity (AUC0-∞) • Peak (maximum) plasma concentration of the drug (Cmax) • Time to peak (maximum) plasma concentration (tmax) • Elimination half-life (t1/2)
Venous blood samples of 10 ml each were collected with K2EDTA anticoagulant for Baseline levels of Δ-9-THC, 11-OHTHC and THC-COOH on Day −1 (Periods 1 and 2). For Periods 1 and 2, levels of nabilone and gabapentin were assessed following the time points listed in Table 2 following the first and fourth dose. Study participants returned on Day 8 (Periods 1 and 2) to have PK samples drawn to help determine the terminal half-life of nabilone. The Baseline (0-hour) time point was collected within 30 minutes prior to dosing.
Baseline concentrations of Δ-9-THC, 11-OHTHC and THC-COOH were determined using a validated liquid chromatographic-tandem mass spectroscopy (LC-MS/MS) assay with a lower limit of quantification (LLOQ) of 0.200 ng/mL.

[2] = pH values ranging from 1.2 to 7.0; cited from earlier work
GABA receptors = details: concentrations at or below 1 millimolar; cited from earlier work
[3] = reported; cited from earlier work
[4] = 6 mg, nabilone 6 mg, Days 1-2, both sequences, arithmetic mean
[5] = 6 mg, nabilone 6 mg, Days 4-5, both sequences, arithmetic mean
[6] = 600 mg, gabapentin 600 mg, Sequence AB, Days 1-2, arithmetic mean
[7] = 600 mg, gabapentin 600 mg, Sequence AB, Days 4-5, arithmetic mean
[8] = 600 mg, gabapentin 600 mg, Sequence BA, Days 1-2, arithmetic mean
[9] = 600 mg, gabapentin 600 mg, Sequence BA, Days 4-5, arithmetic mean

In the case of CCCCCCC(C)(C)c1cc(O)c2c(c1)OC(C)(C)C1CCC(=O)CC21 (racemic) [Nabilone, (±)-trans-3-(1,1-dimethylheptyl)-6,6a,7,8,10,10a-hexahydro-1-hydroxy-6-6-dimethyl-9H-dibenzo[b,d]pyran-9-one], the AUC(0-t) ([1]; 6 mg, AUC0-24, nabilone 6 mg, Days 1-2, both sequences, arithmetic mean) is reported as 0.0341 µg·h/mL, the AUC(0-t) ([1]; 6 mg, AUC0-24, nabilone 6 mg, Days 4-5, both sequences, arithmetic mean) is reported as 0.0339 µg·h/mL and the AUC(0-inf) [1, 4] is reported as 0.0358 µg·h/mL. The AUC(0-inf) [1, 5] was 0.0374 µg·h/mL, the Cmax [1, 4] was 0.00851 µg/mL and the Cmax [1, 5] was 0.00859 µg/mL. The Tmax ([1]; 6 mg, Tmax, nabilone 6 mg, Days 1-2, both sequences, PK population, arithmetic mean ± SD) was 2.5 ± 1.5 h, the Tmax ([1]; 6 mg, Tmax, nabilone 6 mg, Days 4-5, both sequences, arithmetic mean ± SD) was 2.3 ± 0.9 h and the half-life ([1]; 6 mg, t1/2, nabilone 6 mg, Days 1-2, both sequences, arithmetic mean ± SD) was 6.4 ± 1.7 h. For the same compound, the half-life ([1]; 6 mg, t1/2, nabilone 6 mg, Days 4-5, both sequences, arithmetic mean ± SD) was 9.9 ± 2.5 h, the Tmax ([1]; mean time to maximal concentration (Tmax), nabilone) was about 2.5 h and the “Pharmacokinetics compared with historical controls” value [1] was “consistent with historical controls”. For the same compound, the “accumulation over the period studied” value ([1]; nabilone, Days 1 to 2 vs Days 4 to 5) was “no accumulation occurred; also recorded: minimal accumulation” and the “solubility in aqueous media” value [2] was “less than 0.5 mg/L”.
With NCC1(CC(=O)O)CCCCC1 [Gabapentin, 1-(aminomethyl)cyclohexaneacetic acid] the t1/2 ([1]; gabapentin 600 mg, Sequence BA, Days 1-2, arithmetic mean) was 5.3 h, the “exposure metrics (Cmax, AUC0-24, AUC0-∞) over time” value ([1]; gabapentin, Days 4 to 5 vs Days 1 to 2) was “exposure slightly increased at Days 4 to 5 compared to Days 1 to 2” and the AUC(0-t) ([1]; 600 mg, AUC0-24, gabapentin 600 mg, Sequence AB, Days 1-2, arithmetic mean) was 65.7 µg·h/mL. For the same compound, the AUC(0-t) ([1]; 600 mg, AUC0-24, gabapentin 600 mg, Sequence AB, Days 4-5, arithmetic mean) was 70.5 µg·h/mL, the AUC(0-t) ([1]; 600 mg, AUC0-24, gabapentin 600 mg, Sequence BA, Days 1-2, arithmetic mean) was 53.6 µg·h/mL and the AUC(0-t) ([1]; 600 mg, AUC0-24, gabapentin 600 mg, Sequence BA, Days 4-5, arithmetic mean) was 58.1 µg·h/mL. The AUC(0-inf) [1, 6] was 70 µg·h/mL, the AUC(0-inf) [1, 7] was 74.9 µg·h/mL and the AUC(0-inf) [1, 8] was 57.2 µg·h/mL. For the same compound, the AUC(0-inf) [1, 9] was 63.1 µg·h/mL, the Cmax [1, 6] was 6.08 µg/mL and the Cmax [1, 7] was 7.01 µg/mL. The Cmax [1, 8] was 5.17 µg/mL, the Cmax [1, 9] was 5.51 µg/mL and the Tmax ([1]; 600 mg, Tmax, gabapentin 600 mg, Sequence AB, Days 1-2, arithmetic mean ± SD) was 3.7 ± 1.1 h. It also gave a Tmax ([1]; 600 mg, Tmax, gabapentin 600 mg, Sequence AB, Days 4-5, arithmetic mean ± SD) of 3.3 ± 0.8 h, a Tmax ([1]; 600 mg, Tmax, gabapentin 600 mg, Sequence BA, Days 1-2, arithmetic mean ± SD) of 3.7 ± 0.5 h and a Tmax ([1]; 600 mg, Tmax, gabapentin 600 mg, Sequence BA, Days 4-5, arithmetic mean ± SD) of 1 ± 1.1 h. For the same compound, the half-life ([1]; 600 mg, t1/2, gabapentin 600 mg, Sequence AB, Days 1-2, arithmetic mean) was 5.4 h, the half-life ([1]; 600 mg, t1/2, gabapentin 600 mg, Sequence AB, Days 4-5, arithmetic mean) was 5.5 h and the half-life ([1]; 600 mg, t1/2, gabapentin 600 mg, Sequence BA, Days 4-5, arithmetic mean) was 6.3 h. The AUC(0-t) ([1]; AUC0-24, gabapentin, range across days and sequences) was 53.6 to 70.5 µg·h/mL, the Tmax ([1]; mean Tmax, gabapentin, across days and sequences) was 3.3 to 4 h and the half-life ([1]; mean t1/2, gabapentin, range across treatment (days, sequence)) was 5.3 to 6.3 h. The “Pharmacokinetics compared with historical controls” value [1] was “consistent with historical controls” and the “binding to GABA receptors” value (GABA receptors) was “has not been shown to bind to GABA receptors”.
For CCCCCc1cc(O)c2c(c1)OC(C)(C)[C@@H]1CCC(CO)=C[C@@H]21 [11-OH-delta-9-THC, 11-hydroxy-delta-9-tetrahydrocannabinol], the “agonist potency relative to delta-9-THC” value [3] is listed as “more potent agonist than delta-9-THC”.
